Results from patent publication US20090074815A1, “Immunomodulator Compounds as Vaccine Enhancers” (SCICLONE PHARMACEUTICALS, INC., priority 2005, published 2009).
Like-named read-outs stand apart in the source and are kept apart here.

Assays:
neutrophils = test: Concentration and functional activity of neutrophils (phagocytosis, lysosomal activity, spontaneous and induced HCT test) before and after vaccination; type: in vivo, human
[1] = tested on: IFN-γ production by OvA-stimulated splenocytes; test: OvA-stimulated production of IFN-γ by splenocytes of OvA-immunized mice; type: in vivo; conditions: for activity at 0.0001 mg/kg / activity at 0.001 mg/kg / activity at 0.01 mg/kg: Mus musculus, Splenocyte, po, read-out: Production of IFN-γ by splenocytes, % (% of control); for activity at 0.001 mg/kg: 1.0 μg/kg per os; for activity at 0.01 mg/kg: 10.0 μg/kg per os
[2] = Group 2 (patients with infectious syndrome, hepatitis B vaccination with SCV-07), after vaccination, n = 16, M ± m
[3] = OvA/Alum, 0.1 μg/kg per os, OvA 0 μg/ml
[4] = OvA/Alum, 0.1 μg/kg per os, OvA 10 μg/ml
[5] = OvA/Alum, 0.1 μg/kg per os, OvA 25 μg/ml
[6] = OvA/Alum, 0.1 μg/kg per os, OvA 50 μg/ml
[7] = OvA/Alum, 0.1 μg/kg per os, OvA 100 μg/ml
[8] = OvA/Alum, 0.1 μg/kg i/p, OvA 10 μg/ml
[9] = OvA/Alum, 0.1 μg/kg i/p, OvA 25 μg/ml
[10] = OvA/Alum, 0.1 μg/kg i/p, OvA 50 μg/ml
[11] = OvA/Alum, 0.1 μg/kg i/p, OvA 100 μg/ml
[12] = OvA/Alum, 1.0 μg/kg i/p, OvA 25 μg/ml

In the case of `N[C@H](CCC(=O)N[C@@H](Cc1c[nH]c2ccccc12)C(=O)O)C(=O)O` [SCV-07, γ-D-glutamyl-L-tryptophan], the “Activity of phagocytosis %” value (neutrophils; [2]) is reported as 46.88 ± 4.92%, the “Functional reserve, conv. units” value (neutrophils; [2]) is reported as 1.929 ± 0.225 conv. units and the “Induced HCT-test, activity, %” value (neutrophils; [2]) is reported as 48.63 ± 4.62%. The “Induced HCT-test, index, conv. units” value (neutrophils; [2]) was 0.732 ± 0.08 conv. units, the “Intensity of phagocytosis, conv. units” value (neutrophils; [2]) was 1.44 ± 0.189 conv. units and the “Lysosomal activity, conv. units” value (neutrophils; [2]) was 198.7 ± 22.5 conv. units. The Neutrophils % (neutrophils; [2]) was 56.56 ± 2.07%, the “Neutrophils × 10^9/l” value (neutrophils; [2]) was 3.403 ± 0.27 × 10^9/l and the “Phagocytary number, conv. units” value (neutrophils; [2]) was 2.92 ± 0.255 conv. units. The “Spontaneous HCT-test, activity, %” value (neutrophils; [2]) was 34.50 ± 5.62%, the “Spontaneous HCT-test, index, conv.” value (neutrophils; [2]) was 0.50 ± 0.093 conv and the “spontaneous activity and intensity of neutrophils in the HCT reaction” value (neutrophils; immunodeficient subjects with SCV-07 versus vaccine only and versus healthy, p<0.05) was “significantly lower”. For the same molecule, the “activities of neutrophils in the induced HCT test” value (neutrophils; subjects who received SCV-07 versus vaccinated without immunomodulator, after vaccination, p<0.05) was “significantly higher”, the activity at 0.0001 mg/kg [1, 3] was 100% and the activity at 0.0001 mg/kg [1, 4] was 124%. It also gave an activity at 0.0001 mg/kg [1, 5] of 150%, an activity at 0.0001 mg/kg [1, 6] of 150% and an activity at 0.0001 mg/kg [1, 7] of 158%. For the same molecule, the activity at 0.001 mg/kg ([1]; OvA/Alum, OvA 0 μg/ml) was 100%, the activity at 0.001 mg/kg ([1]; OvA/Alum, OvA 10 μg/ml) was 98.3% and the activity at 0.001 mg/kg ([1]; OvA/Alum, OvA 25 μg/ml) was 103%. The activity at 0.001 mg/kg ([1]; OvA/Alum, OvA 50 μg/ml) was 103%, the activity at 0.001 mg/kg ([1]; OvA/Alum, OvA 100 μg/ml) was 122% and the activity at 0.01 mg/kg ([1]; OvA/Alum, OvA 0 μg/ml) was 100%. For the same molecule, the activity at 0.01 mg/kg ([1]; OvA/Alum, OvA 10 μg/ml) was 47.9%, the activity at 0.01 mg/kg ([1]; OvA/Alum, OvA 25 μg/ml) was 119% and the activity at 0.01 mg/kg ([1]; OvA/Alum, OvA 50 μg/ml) was 119%. For the same molecule, the activity at 0.01 mg/kg ([1]; OvA/Alum, OvA 100 μg/ml) was 140%, the activity at 0.0001 mg/kg ([1]; OvA/FA, 0.1 μg/kg per os, OvA 0 μg/ml) was 100% and the activity at 0.0001 mg/kg ([1]; OvA/FA, 0.1 μg/kg per os, OvA 10 μg/ml) was 119%. The activity at 0.0001 mg/kg ([1]; OvA/FA, 0.1 μg/kg per os, OvA 25 μg/ml) was 121%, the activity at 0.0001 mg/kg ([1]; OvA/FA, 0.1 μg/kg per os, OvA 50 μg/ml) was 142% and the activity at 0.0001 mg/kg ([1]; OvA/FA, 0.1 μg/kg per os, OvA 100 μg/ml) was 136%. For the same molecule, the activity at 0.001 mg/kg ([1]; OvA/FA, OvA 0 μg/ml) was 100%, the activity at 0.001 mg/kg ([1]; OvA/FA, OvA 10 μg/ml) was 128% and the activity at 0.001 mg/kg ([1]; OvA/FA, OvA 25 μg/ml) was 87.3%. For the same molecule, the activity at 0.001 mg/kg ([1]; OvA/FA, OvA 50 μg/ml) was 116%, the activity at 0.001 mg/kg ([1]; OvA/FA, OvA 100 μg/ml) was 113% and the activity at 0.01 mg/kg ([1]; OvA/FA, OvA 0 μg/ml) was 100%. The activity at 0.01 mg/kg ([1]; OvA/FA, OvA 10 μg/ml) was 83.7%, the activity at 0.01 mg/kg ([1]; OvA/FA, OvA 25 μg/ml) was 66.2% and the activity at 0.01 mg/kg ([1]; OvA/FA, OvA 50 μg/ml) was 75.9%. The activity at 0.01 mg/kg ([1]; OvA/FA, OvA 100 μg/ml) was 74.8%, the “Production of IFN-γ by splenocytes” value ([1]; OvA/Alum, 0.1 μg/kg i/p, OvA 0 μg/ml) was 9365 pg/mL and the “Production of IFN-γ by splenocytes” value [1, 8] was 8816 pg/mL. For the same molecule, the “Production of IFN-γ by splenocytes, % (% of control)” value (from here on “Production of IFN-γ … (% of control)”) [1, 8] was 94.1%, the “Production of IFN-γ by splenocytes” value [1, 9] was 8028 pg/mL and the “Production of IFN-γ … (% of control)” value [1, 9] was 85.7%. For the same molecule, the “Production of IFN-γ by splenocytes” value [1, 10] was 8028 pg/mL, the “Production of IFN-γ … (% of control)” value [1, 10] was 85.7% and the “Production of IFN-γ by splenocytes” value [1, 11] was 8048 pg/mL. For the same molecule, the “Production of IFN-γ … (% of control)” value [1, 11] was 85.9%, the “Production of IFN-γ by splenocytes” value [1, 3] was 4642 pg/mL and the “Production of IFN-γ by splenocytes” value [1, 4] was 5775 pg/mL. For the same molecule, the “Production of IFN-γ by splenocytes” value [1, 5] was 6969 pg/mL, the “Production of IFN-γ by splenocytes” value [1, 6] was 6969 pg/mL and the “Production of IFN-γ by splenocytes” value [1, 7] was 7310 pg/mL. The “Production of IFN-γ by splenocytes” value ([1]; OvA/Alum, 1.0 μg/kg i/p, OvA 0 μg/ml) was 7129 pg/mL, the “Production of IFN-γ by splenocytes” value ([1]; OvA/Alum, 1.0 μg/kg i/p, OvA 10 μg/ml) was 9986 pg/mL and the “Production of IFN-γ by splenocytes” value [1, 12] was 7982 pg/mL. The “Production of IFN-γ … (% of control)” value [1, 12] was 112.0%.
